# Literature values, collected in US8697633B2, “Dissolution of arterial plaque” (AtheraNova Operations, Inc., priority 2005, dated 2014).
# Assays:
# atherosclerotic plaque [1] = conditions: dietary HDCA, relative to mice not provided HDCA
# atherosclerotic plaque [2] = conditions: 40 mg/day
SMILES,rate of formation of atherosclerotic plaque (atherosclerotic plaque [1]),"modulation of LDL, HDL, and triglyceride levels (atherosclerotic plaque [2])","reduction of normalized total atheroma volume (atherosclerotic plaque [2]; after 2 years, SD=11.1)","reduction of plaque volume in the most diseased segments of vessels (atherosclerotic plaque [2]; after 2 years, SD=13.7)"
"C[C@H](CCC(=O)O)[C@H]1CC[C@H]2[C@@H]3C[C@H](O)[C@@H]4C[C@H](O)CC[C@]4(C)[C@H]3CC[C@]12C [HDCA, hyodeoxycholic acid]",reduced rate of formation of atherosclerotic plaque,–,–,–
CC(C)c1nc(N(C)S(C)(=O)=O)nc(-c2ccc(F)cc2)c1/C=C/[C@@H](O)C[C@@H](O)CC(=O)O [rosuvastatin],–,particularly effective,6.7%,8.5%
